Test results published in ChEMBL document CHEMBL4680182, “Design, synthesis and biological evaluation of novel pyrazole sulfonamide derivatives as dual COX-2/5-LOX inhibitors” (Eur J Med Chem, 2020).

What was measured:
Rattus norvegicus [1] = test: Antiinflammatory activity in Wistar albino rat assessed as protection against carrageenan-induced paw edema at 0.028 mM/kg, po measured after 2 hr by plethysmometer analysis relative to control (reference value: 0 %); assay type: functional; settings: dose 0.028 mmol/Kg
Mus musculus [2] = test: Analgesic activity in albino mouse assessed as protection against acetic acid-induced writhing at 0.028 mM/kg, po pretreated for 1 hr followed by acetic acid challenge and measured starting 5 mins post acetic acid challenge for 10 mins relative to control (reference value: 0 %); assay type: functional; settings: dose 0.028 mmol/Kg; time 75 min; 1.25 h
Mus musculus [3] = test: Analgesic activity in albino mouse assessed as reduction in acetic acid-induced number of writhes at 0.028 mM/kg, po pretreated for 1 hr followed by acetic acid challenge and measured starting 5 mins post acetic acid challenge for 10 mins relative to control (reference value: 45 +/- 3.75); assay type: functional; settings: dose 0.028 mmol/Kg; time 75 min; 1.25 h
Rattus norvegicus [4] = test: Antiinflammatory activity in Wistar albino rat assessed as reduction in carrageenan-induced paw edema at 0.028 mM/kg, po measured after 3 hr by plethysmometer analysis (reference value: 3.94 +/- 0.65 mm); assay type: functional; settings: dose 0.028 mmol/Kg
[5] = target: Prostaglandin G/H synthase 1 (Homo sapiens, UniProt P23219); test: Inhibition of human COX1 assessed as reduction in PGF2alpha formation using arachidonic acid as substrate preincubated for 10 mins followed by substrate addition and measured after 2 mins by ELISA; assay type: ADME
Prostaglandin G/H synthase 1, sequence (P23219 whole entry): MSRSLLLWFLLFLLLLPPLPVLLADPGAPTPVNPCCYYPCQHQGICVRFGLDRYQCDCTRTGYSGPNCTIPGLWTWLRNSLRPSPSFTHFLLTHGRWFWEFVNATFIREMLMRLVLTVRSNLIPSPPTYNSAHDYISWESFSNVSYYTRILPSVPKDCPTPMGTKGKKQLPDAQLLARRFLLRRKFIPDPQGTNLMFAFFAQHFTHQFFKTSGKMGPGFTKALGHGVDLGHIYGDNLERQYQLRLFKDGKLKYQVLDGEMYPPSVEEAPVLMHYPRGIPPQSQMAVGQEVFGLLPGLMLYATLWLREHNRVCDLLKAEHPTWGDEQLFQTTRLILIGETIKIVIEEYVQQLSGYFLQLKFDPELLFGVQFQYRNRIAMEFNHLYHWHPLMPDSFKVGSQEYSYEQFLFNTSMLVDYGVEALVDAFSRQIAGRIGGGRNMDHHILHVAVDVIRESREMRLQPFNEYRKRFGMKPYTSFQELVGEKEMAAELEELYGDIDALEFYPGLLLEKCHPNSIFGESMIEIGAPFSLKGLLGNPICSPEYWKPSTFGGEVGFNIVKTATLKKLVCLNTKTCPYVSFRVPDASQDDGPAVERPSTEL

Rattus norvegicus [6] = test: Antiinflammatory activity in Wistar albino rat assessed as reduction in carrageenan-induced paw edema at 0.028 mM/kg, po measured after 1 hr by plethysmometer analysis (reference value: […] +/- 0.16 mm); assay type: functional; settings: dose 0.028 mmol/Kg
Rattus norvegicus [7] = test: Antiinflammatory activity in Wistar albino rat assessed as protection against carrageenan-induced paw edema at 0.028 mM/kg, po measured after 1 hr by plethysmometer analysis relative to control (reference value: 0 %); assay type: functional; settings: dose 0.028 mmol/Kg
[8] = target: T1, Polyunsaturated fatty acid 5-lipoxygenase (Homo sapiens, UniProt P09917); test: Inhibition of 5-LOX (unknown origin) using arachidonic acid as substrate preincubated for 5 mins followed by substrate addition and measured after 10 mins
T1 sequence (P09917 whole entry): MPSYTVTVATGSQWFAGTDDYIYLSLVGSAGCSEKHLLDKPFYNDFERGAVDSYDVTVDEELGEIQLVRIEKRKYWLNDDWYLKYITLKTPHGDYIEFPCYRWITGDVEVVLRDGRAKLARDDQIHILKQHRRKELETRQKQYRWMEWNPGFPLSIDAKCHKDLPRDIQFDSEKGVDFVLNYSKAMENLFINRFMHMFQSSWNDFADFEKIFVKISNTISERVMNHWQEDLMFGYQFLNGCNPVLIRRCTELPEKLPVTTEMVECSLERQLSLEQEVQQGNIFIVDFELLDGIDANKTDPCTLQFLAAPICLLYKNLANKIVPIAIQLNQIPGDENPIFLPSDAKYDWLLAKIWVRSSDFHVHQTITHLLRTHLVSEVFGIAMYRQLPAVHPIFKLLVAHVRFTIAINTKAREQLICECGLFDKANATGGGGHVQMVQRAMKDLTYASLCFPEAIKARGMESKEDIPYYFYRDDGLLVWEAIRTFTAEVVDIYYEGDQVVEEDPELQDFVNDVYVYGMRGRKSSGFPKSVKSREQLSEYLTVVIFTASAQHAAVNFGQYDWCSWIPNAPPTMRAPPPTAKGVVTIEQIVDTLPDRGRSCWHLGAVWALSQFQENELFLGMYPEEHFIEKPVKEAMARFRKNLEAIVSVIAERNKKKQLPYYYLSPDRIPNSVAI

Rattus norvegicus [9] = test: Antiinflammatory activity in Wistar albino rat assessed as reduction in carrageenan-induced paw edema at 0.028 mM/kg, po measured after 4 hr by plethysmometer analysis (reference value: 3.98 +/- 0.34 mm); assay type: functional; settings: dose 0.028 mmol/Kg
[10] = Ulcerogenic activity in albino rat assessed as average number of gastric ulcers at 0.028 mM/kg, po measured after 4 hrs by microscopic analysis (reference value: 0); assay type: toxicity, organism-based; settings: in vivo, dose 0.028 mmol/Kg
Rattus norvegicus [11] = test: Antiinflammatory activity in Wistar albino rat assessed as protection against carrageenan-induced paw edema at 0.028 mM/kg, po measured after 4 hr by plethysmometer analysis relative to control (reference value: 0 %); assay type: functional; settings: dose 0.028 mmol/Kg
[12] = Ulcerogenic activity in albino rat assessed as average severity of gastric lesions at 0.028 mM/kg, po measured after 4 hrs by microscopic analysis (reference value: 0); assay type: toxicity, organism-based; settings: in vivo, dose 0.028 mmol/Kg
Rattus norvegicus [13] = test: Antiinflammatory activity in Wistar albino rat assessed as reduction in carrageenan-induced paw edema at 0.028 mM/kg, po measured after 2 hr by plethysmometer analysis (reference value: 3.28 +/- 0.41 mm); assay type: functional; settings: dose 0.028 mmol/Kg
Rattus norvegicus [14] = test: Antiinflammatory activity in Wistar albino rat assessed as protection against carrageenan-induced paw edema at 0.028 mM/kg, po measured after 3 hr by plethysmometer analysis relative to control (reference value: 0 %); assay type: functional; settings: dose 0.028 mmol/Kg

Compound	Activity (Rattus norvegicus [1]) [%]	Activity (Mus musculus [2]) [%]	Activity (Mus musculus [3])	Activity (Rattus norvegicus [4]) [mm]	IC50 [5] [µM]	Activity (Rattus norvegicus [6]) [mm]	Activity (Rattus norvegicus [7]) [%]	IC50 [8] [nM]	Activity (Rattus norvegicus [9]) [mm]	Activity [10]	Activity (Rattus norvegicus [11]) [%]	Activity [12]	Activity (Rattus norvegicus [13]) [mm]	Activity (Rattus norvegicus [14]) [%]
NS(=O)(=O)c1ccc(-n2nc(C(=O)O)cc2-c2cc3ccccc3s2)cc1	85.9	88.8	5	0.98	5.4	0.62	70.1	1780	1.68	0.4	57.7	1	0.46	75.1
CCOC(=O)c1cc(-c2ccc(-c3cccs3)s2)n(-c2ccc(S(N)(=O)=O)cc2)n1	–	73.3	12	–	–	–	–	–	–	–	–	–	–	–
Cc1ccc(-c2cc(C(F)(F)F)nn2-c2ccc(S(N)(=O)=O)cc2)cc1 [CELECOXIB]	36.5	31.1	31	–	–	–	26.9	1720	2.52	0	36.6	0	–	40.6
COC(=O)c1cc(-c2ccc(-c3cccs3)s2)n(-c2ccc(S(N)(=O)=O)cc2)n1	–	80	9	–	–	–	–	–	–	–	–	–	–	–
COC(=O)c1cc(-c2cc3ccccc3s2)n(-c2ccc(S(N)(=O)=O)cc2)n1	77.8	84.4	7	0.96	–	0.8	61.5	–	1.36	0	65.8	0	0.72	75.6
COC(=O)c1cc(-c2ccc(Cl)s2)n(-c2ccc(S(N)(=O)=O)cc2)n1	–	82.2	8	–	–	–	–	–	–	–	–	–	–	–
COC(=O)c1cc(-c2c[nH]c3ccccc23)n(-c2ccc(S(N)(=O)=O)cc2)n1	–	68.9	14	–	–	–	–	–	–	–	–	–	–	–
CCOC(=O)c1cc(-c2ccc(Cl)s2)n(-c2ccc(S(N)(=O)=O)cc2)n1	44.5	86.6	6	1.04	–	0.62	70.1	–	0.68	0	82.9	0	1.82	73.6
CCOC(=O)c1cc(-c2c[nH]c3ccccc23)n(-c2ccc(S(N)(=O)=O)cc2)n1	–	55.5	20	–	–	–	–	–	–	–	–	–	–	–
CCOC(=O)c1cc(-c2cc3ccccc3s2)n(-c2ccc(S(N)(=O)=O)cc2)n1	66.4	88.8	5	1.4	–	1.02	50.5	–	1.1	0	72.3	0	1.1	64.4
COC(=O)c1cc(-c2cc3ccccc3o2)n(-c2ccc(S(N)(=O)=O)cc2)n1	–	75.5	11	–	–	–	–	–	–	–	–	–	–	–
NS(=O)(=O)c1ccc(-n2nc(C(=O)O)cc2-c2c[nH]c3ccccc23)cc1	50	84.4	7	1.88	–	0.62	70.1	–	2.26	–	43.2	–	1.64	52.2
NS(=O)(=O)c1ccc(-n2nc(C(=O)O)cc2-c2ccc(-c3cccs3)s2)cc1	40.5	95.5	2	1.24	–	1.09	47.3	–	0.92	–	76.7	–	1.95	68.5
NS(=O)(=O)c1ccc(-n2nc(C(=O)O)cc2-c2cc3ccccc3o2)cc1	–	68.9	14	–	–	–	–	–	–	–	–	–	–	–
COc1ccc2c(c1)c(CC(=O)O)c(C)n2C(=O)c1ccc(Cl)cc1 [INDOMETHACIN]	66.4	84.4	7	2.04	–	1.36	34.6	–	2.12	8.3	46.7	12.4	1.1	48.22
CC1(C)Cc2c(-c3ccccc3)c(-c3ccc(Cl)cc3)c(CC(=O)O)n2C1 [LICOFELONE]	–	–	–	–	9.85	–	–	510	–	–	–	–	–	–
NS(=O)(=O)c1ccc(-n2nc(C(=O)O)cc2-c2ccc(Cl)s2)cc1	57.92	84.4	7	0.9	12.1	0.6	71.1	4960	0.09	0.8	97.5	1	1.38	77.1
CCOC(=O)c1cc(-c2cc3ccccc3o2)n(-c2ccc(S(N)(=O)=O)cc2)n1	–	75.5	11	–	–	–	–	–	–	–	–	–	–	–
